According to publication PMC7251097, “Aspartate/asparagine-β-hydroxylase: a high-throughput mass spectrometric assay for discovery of small molecule inhibitors” (Scientific Reports, 2020):
Several values for one entry are separate records, joined by “and”; a condition that tells them apart may be missing. Equal entries are not always repeated. Structures can show the parent of a compound that is named as a salt. Where two headings read alike, the source gives them in different places.

Experiments:
His6-AspH315-758 (AspH) = target: T1, His6-AspH315-758 (AspH) (Homo sapiens, UniProt Q12797); test: Differential scanning fluorimetry (DSF) assay, shift of AspH melting temperature; type: binding; details: 20 μM inhibitor, 2 μM AspH, 50 μM NiCl2, with respect to DMSO controls, n = 2, mean ± SD; for ΔTm at 20 µM: read-out: Tm-shift (ΔTm) of AspH melting temperature [°C]
T1 construct: freshly thawed His6-AspH315-758 was added; made in house; host or cells: E. coli BL21 (DE3), pET-28a(+) vector
T1 sequence (Q12797 315-758): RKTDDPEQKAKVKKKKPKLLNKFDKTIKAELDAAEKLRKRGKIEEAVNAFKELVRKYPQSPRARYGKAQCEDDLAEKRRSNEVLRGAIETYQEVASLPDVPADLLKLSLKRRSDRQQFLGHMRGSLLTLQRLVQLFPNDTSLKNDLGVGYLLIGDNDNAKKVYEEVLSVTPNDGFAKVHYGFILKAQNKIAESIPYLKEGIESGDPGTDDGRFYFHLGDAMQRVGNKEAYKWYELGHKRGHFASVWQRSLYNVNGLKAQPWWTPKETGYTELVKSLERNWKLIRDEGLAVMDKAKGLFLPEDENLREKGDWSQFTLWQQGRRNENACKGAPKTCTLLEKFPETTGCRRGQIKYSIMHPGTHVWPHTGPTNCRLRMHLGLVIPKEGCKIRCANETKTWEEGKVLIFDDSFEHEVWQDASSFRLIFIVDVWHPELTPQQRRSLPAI

[1] = target: T2, His6-AspH315–758 (human aspartate/asparagine-β-hydroxylase, AspH) (Homo sapiens, UniProt Q12797); test: SPE-MS AspH inhibition assay (LOPAC screen at fixed 20 μM and IC50 dose-response), hydroxylation of cyclic peptide hFX-CP101–119; type: biochemical
T2 construct: N-Terminally His6-tagged human AspH315–758 (His6-AspH315–758) was produced in E. coli BL21 (DE3) cells; made in house; host or cells: E. coli BL21 (DE3), pET-28a(+) vector
T2 sequence (Q12797 315-758): T1 sequence (Q12797 315-758)

PHD2 = details: read-out: IC50 metal ion, PHD2, cited from earlier work
FIH = details: read-out: IC50 metal ion, FIH [μM] (Ki values are shown), cited from earlier work
KDM4A = details: read-out: IC50 metal ion, KDM4A, cited from earlier work
KDM4E = details: read-out: IC50 metal ion, KDM4E, cited from earlier work
TauD = details: read-out: IC50 metal ion, TauD; cited from earlier work
[2] = AspH activity, fixed compound concentration 20 μM, initial LOPAC screen, 0.5%v/v DMSO, read-out: Inhibition at 20 µM [%]
[3] = LOPAC Plate 4, compound at 20 uM, substrate conversion
[4] = 50 nM AspH, 2.0 μM Fe(II), Zn(OAc)2, NiSO4, CoCl2, MnCl2, CaCl2 as metal sources, n = 2, mean ± SD, read-out: IC50 metal ion, AspH
[5] = 5 μM Fe(II), Ki values are shown
[6] = 50 nM His6-AspH315–758, 1.0 μM hFX-CP101–119, 3 μM 2OG, 2 μM Fe(II), 50 mM HEPES pH 7.5, 20 °C, mean ± SD, n = 2 (2,4-PDCA n = 10), read-out: IC50
[7] = LOPAC compound at fixed 20 uM, plate 1, normalised to DMSO and 2,4-PDCA controls
[8] = LOPAC compound at fixed 20 uM, substrate conversion, plate 1
[9] = LOPAC compound at 20uM, plate 2, conversion of substrate peptide
[10] = LOPAC compound at 20uM, plate 3, conversion of substrate peptide
[11] = LOPAC compound at 20uM, plate 2, normalised to DMSO and 2,4-PDCA controls
[12] = plate 5 (Pfitzer), test compounds at fixed 20 μM
[13] = LOPAC Plate 4, compound at 20 uM

Molecule: O=C(O)c1ccnc(C(=O)O)c1 [2,4-PDCA, pyridine-2,4-dicarboxylic acid]
- ΔTm at 20 µM (His6-AspH315-758 (AspH)): 3.5 ± 0.6 °C

Molecule: CCOc1nc2cccc(C(=O)OC(C)OC(=O)OC3CCCCC3)c2n1Cc1ccc(-c2ccccc2-c2nnn[nH]2)cc1 (stereo not drawn) [Candesartan cilexetil, reference compound]
- inhibition at 20 µM [1, 2]: 100%
- % conversion [1, 3]: 2.30%
- Tm-shift (ΔTm) of AspH melting temperature [°C] (His6-AspH315-758 (AspH)): < 0.3 °C
- ΔTm at 20 µM (His6-AspH315-758 (AspH)): 0.2 ± 0.1 °C

Molecule: O=C(O)c1ccc(O)c2ncccc12 [IOX1]
- Tm-shift (ΔTm) of AspH melting temperature [°C] (His6-AspH315-758 (AspH)): 2.8 ± 0.2 °C and ~ 2.8 °C

Molecule: [Cl][Mn][Cl] [Mn(II), MnCl2]
- IC50 [1, 4]: 5.06 ± 1.02 µM
- Reduction of AspH inhibition compared to Zn(II) ([1]; ratio of IC50 values against AspH, Table 2): approximately 100 fold
- IC50 (PHD2; 2 μM PHD2 and 20 μM Fe(II)): 21 µM
- Ki (FIH; [5]): 10 ± 1 µM
- IC50 (KDM4A; 2 μM KDM4 and 10 μM Fe(II)): 101 µM
- IC50 (KDM4E; 2 μM KDM4 and 10 μM Fe(II)): 224 µM

Molecule: O=C(O)CNC(=O)C(=O)O [NOG, N-oxalylglycine, reference compound]
- IC50 [1, 6]: 1.09 ± 0.29 µM
- ΔTm at 20 µM (His6-AspH315-758 (AspH)): 2.8 ± 0.3 °C

Molecule: O=S(=O)([O-])[O-].[Ni+2] [Ni(II), NiSO4]
- IC50 ([1]; read-out: IC50 metal ion, AspH): 0.17 ± 0.08 µM
- IC50 (PHD2): 185 µM
- Ki (FIH): 4 ± 1 µM
- IC50 (TauD): 0.6 to 1 µM
- IC50 (KDM4A): 9.4 µM
- IC50 (KDM4E): 15.6 µM

Molecule: Cc1ccc(-n2sc3ccccc3c2=O)cc1 [PBIT, 2-(4-methylphenyl)-1,2-benzisothiazol-3(2 H)-one, reference compound]
- IC50 [1, 6]: 0.14 ± 0.02 µM
- Tm-shift (ΔTm) of AspH melting temperature [°C] (His6-AspH315-758 (AspH)): -15.2 ± 1.4 °C and ~ −15.2 °C

Molecule: CC(=O)[O-].CC(=O)[O-].[Zn+2] [Zn(II), Zn(OAc)2]
- IC50 [1, 4]: ~0.05 µM and 0.05 µM
- IC50 (PHD2; 2 μM PHD2 and 20 μM Fe(II)): 9.3 µM
- Ki (FIH; [5]): 0.5 ± 0.1 µM
- IC50 (KDM4A; 2 μM KDM4 and 10 μM Fe(II)): 7.8 µM
- IC50 (KDM4E; 2 μM KDM4 and 10 μM Fe(II)): 13 µM

Molecule: NC(CO)C(=O)NNCc1ccc(O)c(O)c1O (stereo not drawn) [benserazide, reference compound]
- IC50 [1, 6]: 3.49 ± 0.76 µM
- inhibition at 20 µM [1, 2]: 95.2%
- Plate 1 (% inhibition) [1, 7]: 95.21%
- Plate 1 (% conversion) [1, 8]: 3.90%

Molecule: O=C(O)/C=C/c1ccc(O)c(O)c1 [caffeic acid, reference compound]
- IC50 [1, 6]: 0.24 ± 0.08 µM
- Plate 1 (% conversion) [1, 8]: 3.16%

Molecule: CCOc1nc2cccc(C(=O)O)c2n1Cc1ccc(-c2ccccc2-c2nnn[nH]2)cc1 [candesartan, reference compound]
- IC50 [μM] ([1]; 50 nM His6-AspH315–758, 1.0 μM hFX-CP101–119, 3 μM 2OG, 2 μM Fe(II), 50 mM HEPES pH 7.5, 20 °C, mean ± SD, n = 2 (2,4-PDCA n = 10)): no inhibition

Molecule: CC(=O)OCC1=C(C(=O)[O-])N2C(=O)[C@@H](NC(=O)CCC[C@@H](N)C(=O)[O-])[C@H]2SC1.[Zn+2] [cephalosporin C zinc salt, reference compound]
- Inhibition at 20 µM [%] [1]: 98.1%
- Plate 1 (% conversion) [1]: 2.94%
- IC50 ([1]; pH 7.5, read-out: IC50): ~0.07 µM and 0.07 µM

Molecule: NC/C=C\C(=O)O [cis-4-Aminocrotonic acid]
- Plate 1 (% inhibition) [1, 7]: -8.37%
- Plate 1 (% conversion) [1, 8]: 38.68%

Molecule: OCCN1CCN(CC/C=C2/c3ccccc3Sc3ccc(C(F)(F)F)cc32)CC1 [cis-(Z)-Flupenthixol dihydrochloride]
- Plate 2 (% conversion) [1, 9]: 67.44%
- inhibition at 20 µM ([1]; LOPAC compound at 20uM, plate 2, normalised to DMSO and 2,4-PDCA controls, read-out: Plate 2 (% inhibition)): -94%

Molecule: C#CC(N)CCC(=O)O (stereo not drawn) [gamma-Acetylinic GABA]
- Plate 1 (% inhibition) [1, 7]: -4.92%
- Plate 1 (% conversion) [1, 8]: 37.52%

Molecule: CC(C(=O)O)c1ccc(CC2CCCC2=O)cc1 (stereo not drawn) [loxoprofen]
- Plate 3 (% conversion) [1, 10]: 35.95%

Molecule: NC(N)=NCc1cccc(I)c1.NC(N)=NCc1cccc(I)c1.O=S(=O)(O)O [m-Iodobenzylguanidine hemisulfate]
- Plate 3 (% conversion) [1, 10]: 36.94%

Molecule: Cl.Nc1cc(Cl)c(N=C2NCCN2)c(Cl)c1 [p-Aminoclonidine hydrochloride]
- Plate 1 (% inhibition) [1, 7]: -0.11%
- Plate 1 (% conversion) [1, 8]: 35.91%

Molecule: O=C1C=CC(=O)C=C1 [p-Benzoquinone, reference compound]
- Inhibition at 20 µM [%] [1]: 99.3%
- Plate 1 (% conversion) [1]: 2.52%
- Plate 1 (% inhibition) [1]: 99.30%

Molecule: N[C@@H](Cc1ccc(F)cc1)C(=O)O [p-Fluoro-L-phenylalanine]
- Plate 2 (% conversion) [1, 9]: 36.49%
- Plate 2 (% inhibition) [1, 11]: -1.58%

Molecule: Cl.Clc1cc(I)cc(Cl)c1NC1=NCCN1 [p-Iodoclonidine hydrochloride]
- Plate 3 (% conversion) [1, 10]: 40.33%

Molecule: COc1ccccc1N1CCN(CCN(C(=O)c2ccc(F)cc2)c2ccccn2)CC1.Cl.Cl [p-MPPF dihydrochloride]
- Plate 3 (% conversion) [1, 10]: 43.58%

Molecule: O=c1c(O)c(-c2ccc(O)c(O)c2)oc2cc(O)cc(O)c12 [quercetin, reference compound]
- IC50 [1, 6]: 0.24 ± 0.01 µM
- inhibition at 20 µM [1, 2]: 97.8%
- % conversion [1, 3]: 3.10%
- inhibition at 20 µM ([1]; LOPAC Plate 4, compound at 20 uM, read-out: % inhibition): 97.8%

Molecule: CCCc1nn(C)c2c(=O)[nH]c(-c3cc(S(=O)(=O)N4CCN(C)CC4)ccc3OCC)nc12 [sildenafil, reference compound]
- Plate 5 (% conversion) [1]: 6.67%
- IC50 [1, 6]: 2.45 ± 0.36 µM
- inhibition at 20 µM [1, 2]: 97.8%
- Plate 5 (% inhibition) [1, 12]: 87.11%

Molecule: (+)-Catechin Hydrate
- Plate 1 (% inhibition) [1, 7]: 90.19%
- Plate 1 (% conversion) [1, 8]: 5.58%

Molecule: (+)-Cyclazocine
- Plate 2 (% conversion) [1]: 35.78%
- Plate 2 (% inhibition) ([1]; 20 µM): 0.54%

Molecule: (±)-Atenolol
- Plate 1 (% inhibition) [1, 7]: 7.50%

Molecule: (±)-Butaclamol hydrochloride
- Plate 1 (% inhibition) [1, 7]: -27.23%
- Plate 1 (% conversion) [1, 8]: 45.02%

Molecule: BMS-193885
- % conversion [1, 3]: 32.96%

Molecule: CCT007093
- % inhibition [1, 13]: 2.20%
- % conversion [1, 3]: 35.72%

Molecule: CP-316819
- Plate 5 (% conversion) [1]: 34.19%
- Plate 5 (% inhibition) [1]: 6.23%

Molecule: CP-335963
- % conversion [1]: 27.86%
- Plate 5 (% inhibition) [1]: -8.78%

Molecule: CoCl2 [Co(II)]
- IC50 ([1]; read-out: IC50 metal ion, AspH): 0.39 ± 0.13 µM
- IC50 (PHD2): 48.3 µM
- Ki (FIH): 1 ± 0.4 µM
- IC50 (TauD): 1 to 3.5 µM
- IC50 (KDM4A): 5.7 µM
- IC50 (KDM4E): 9.4 µM

Molecule: KRM-III
- Plate 2 (% conversion) [1, 9]: 30.60%
- Plate 2 (% inhibition) [1, 11]: 15.99%

Molecule: LY-310,762 hydrochloride
- Plate 3 (% conversion) [1, 10]: 45.55%

Molecule: Maraviroc
- Plate 1 (% conversion) [1]: 50.71%
- Plate 1 (% inhibition) [1]: -44.18%
- Plate 5 (% conversion) [1]: 49.04%
- Plate 5 (% inhibition) [1]: -37.39%

Molecule: PD-184161
- % inhibition [1, 13]: 6.57%
- % conversion [1, 3]: 34.23%
- Plate 5 (% inhibition) [1, 12]: 40.35%
- Plate 5 (% conversion) ([1]; plate 5 (Pfitzer), test compounds at fixed 20 μM, mean conversion DMSO 32.88): 22.58%

Molecule: Phenylbenzene-omega-phosphono-alpha-amino acid
- % conversion [1]: 25.21%

Molecule: Picrotoxin
- Plate 3 (% conversion) [1]: 36.08%

Molecule: Rhodblock 6
- Plate 1 (% inhibition) [1, 7]: -3.70%
- Plate 1 (% conversion) [1, 8]: 37.11%

Molecule: Ro 8-4304
- % inhibition [1, 13]: -13.60%
- % conversion [1, 3]: 41.11%

Molecule: Ro 20-1724
- Plate 1 (% inhibition) [1, 7]: -0.20%
- Plate 1 (% conversion) [1, 8]: 35.94%

Molecule: Ro 61-8048
- Plate 3 (% conversion) [1, 10]: 30.86%

Molecule: Ro 90-7501
- Plate 3 (% conversion) [1, 10]: 39.97%

Molecule: trans-(±)-ACPD
- Plate 1 (% conversion) [1]: 37.46%
- Plate 1 (% inhibition) [1]: -4.72%
